The source of these data is PubChem BioAssay (NCI).

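Five concentrations, 48 hours, 96-well plates. Here, GI50 denotes the concentration required for 50% inhibition of growth. TGI: concentration producing complete growth inhibition.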

Test systems include EKVX NSCLC; A498 renal; SK-MEL-5 melanoma; HL-60(TB) leukemia; HS 578T breast; HCT-15 colon; HT29 colon; SK-OV-3 ovarian; MDA-MB-435; ACHN renal.
Experiment in all cases: NCI anticancer screen, dose series, 48 h

Consider `O=S(=O)(O)c1ccc2cc3nn(-c4ccc(/C=C/c5ccc(-n6nc7cc8ccc(S(=O)(=O)O)cc8cc7n6)cc5S(=O)(=O)O)c(S(=O)(=O)O)c4)nc3cc2c1`, for which the GI50 in the assay with EKVX NSCLC was 95200 nM; in the assay on A498 renal it was more than 100000 nM; with SK-MEL-5 melanoma, 94700 nM; in the assay on HL-60(TB) leukemia it was 31900 nM; in the assay on HS 578T breast, more than 100000 nM; with HCT-15 colon, 6210 nM. For the same compound, the GI50 with HT29 colon was 59100 nM; in the assay on SK-OV-3 ovarian it was more than 100000 nM; in the assay with MDA-MB-435, more than 100000 nM; in the assay on ACHN renal, 81600 nM. In addition, the TGI with EKVX NSCLC, in the assay on A498 renal, with SK-MEL-5 melanoma, in the assay on HL-60(TB) leukemia, in the assay with HS 578T breast and with HCT-15 colon was more than 100000 nM in each case. Moreover, the TGI with HT29 colon, in the assay with SK-OV-3 ovarian, in the assay on MDA-MB-435 and in the assay on ACHN renal was more than 100000 nM throughout.
In the case of `COc1cc(C(=O)/C=C/c2c(C(F)(F)F)nc3ccccn23)cc(OC)c1OC`, the GI50 is 2370 nM in the assay with EKVX NSCLC; 2400 nM in the assay with A498 renal; 1620 nM in the assay with SK-MEL-5 melanoma; 4120 nM in the assay with HL-60(TB) leukemia; 3270 nM in the assay with HS 578T breast; 2100 nM with HCT-15 colon. Besides, the GI50 is 1930 nM with HT29 colon, 4040 nM in the assay with SK-OV-3 ovarian, 2260 nM in the assay on MDA-MB-435 and 1950 nM in the assay with ACHN renal. Further, the TGI in the assay with EKVX NSCLC was 6780 nM; in the assay with A498 renal, 5770 nM; in the assay with SK-MEL-5 melanoma, 3230 nM; in the assay on HL-60(TB) leukemia it was more than 100000 nM; with HS 578T breast, 54600 nM; in the assay on HCT-15 colon, 7570 nM. Further, the TGI worked out at 4450 nM in the assay on HT29 colon, 19000 nM with SK-OV-3 ovarian, 8760 nM in the assay on MDA-MB-435 and 3790 nM with ACHN renal.
Take `Nc1nc(C(=O)O)c(N=Nc2ccccc2)c(=O)[nH]1`: the TGI in the assay on EKVX NSCLC, with A498 renal, with SK-MEL-5 melanoma, in the assay with HL-60(TB) leukemia, in the assay on HS 578T breast and in the assay on HCT-15 colon was more than 100000 nM each time. Further, the TGI in the assay with HT29 colon, in the assay on SK-OV-3 ovarian, with MDA-MB-435 and in the assay with ACHN renal was more than 100000 nM throughout.
For the compound `O=C1/C(=C/c2ccccc2[N+](=O)[O-])COc2ccc(O)cc21`, the GI50 in the assay on EKVX NSCLC is 3220 nM; in the assay on A498 renal, 1650 nM; in the assay on SK-MEL-5 melanoma, 1760 nM; in the assay with HL-60(TB) leukemia, 1760 nM; in the assay on HS 578T breast, 2390 nM; in the assay on HCT-15 colon it was 417 nM. The GI50 in the assay on HT29 colon is 397 nM; in the assay on SK-OV-3 ovarian, 5250 nM; in the assay with MDA-MB-435 it was 2180 nM; in the assay with ACHN renal it was 740 nM. Also, the TGI worked out at 14500 nM with EKVX NSCLC; 7240 nM in the assay on A498 renal; 4070 nM in the assay with SK-MEL-5 melanoma; 5680 nM in the assay with HL-60(TB) leukemia; 41600 nM in the assay with HS 578T breast; 2060 nM with HCT-15 colon. Further, the TGI in the assay with HT29 colon was 3070 nM; with SK-OV-3 ovarian it was 17600 nM; in the assay on MDA-MB-435, 5960 nM; in the assay with ACHN renal, 2130 nM.
Regarding `CCOC(=O)C(Cc1ccc(N(CCCl)CCCl)cc1)NC(=O)C(Cc1ccccc1)NC(C)=O` (stereo not given), the TGI was more than 538 nM in the assay on EKVX NSCLC; more than 414 nM in the assay with A498 renal; more than 486 nM in the assay on SK-MEL-5 melanoma; more than 264 nM in the assay on HL-60(TB) leukemia; more than 1000 nM in the assay with HS 578T breast; more than 1000 nM with HCT-15 colon. Further, the TGI in the assay on HT29 colon is more than 219 nM; in the assay with SK-OV-3 ovarian it was more than 440 nM; in the assay on MDA-MB-435 it was more than 1000 nM; with ACHN renal, 309 nM.
For the compound `COc1cc2c(cc1NC(=O)C(Cl)Cl)-c1ccc(NC(=O)C(Cl)Cl)cc1C2`, the GI50 was 347 nM in the assay on EKVX NSCLC; 551 nM in the assay on A498 renal; 4350 nM in the assay with SK-MEL-5 melanoma; 568 nM in the assay with HL-60(TB) leukemia; 953 nM with HS 578T breast; 354 nM with HCT-15 colon. For the same compound, the GI50 was 201 nM in the assay with HT29 colon, 6670 nM with SK-OV-3 ovarian, 378 nM in the assay on MDA-MB-435 and 268 nM in the assay on ACHN renal. In addition, the TGI with EKVX NSCLC was 1320 nM; with A498 renal it was 1890 nM; in the assay on SK-MEL-5 melanoma, 18300 nM; in the assay on HL-60(TB) leukemia, 3370 nM; in the assay with HS 578T breast, more than 34700 nM; in the assay with HCT-15 colon, 1940 nM. In addition, the TGI in the assay on HT29 colon was determined as 641 nM; with SK-OV-3 ovarian, 20600 nM; in the assay with MDA-MB-435 it was 1120 nM; in the assay with ACHN renal, 971 nM.
For the compound `COC1=C(OC)[C@]2(OC)c3c(O)c(OC)c4c(c3O[C@@]23O[C@@H](c2ccccc2)CC=C3C1=O)[C@@H](OC)C[C@H](c1ccccc1)O4`, the GI50 with EKVX NSCLC was 1300 nM; in the assay on A498 renal, 1510 nM; in the assay with SK-MEL-5 melanoma, 739 nM; in the assay with HL-60(TB) leukemia, 530 nM; in the assay with HS 578T breast, 896 nM; in the assay with HCT-15 colon, 290 nM. In addition, the GI50 is 235 nM in the assay on HT29 colon, 1910 nM in the assay on SK-OV-3 ovarian, 301 nM in the assay with MDA-MB-435 and 605 nM with ACHN renal. Further, the TGI in the assay with EKVX NSCLC turned out to be 2750 nM; with A498 renal, 2940 nM; with SK-MEL-5 melanoma, 1960 nM; in the assay with HL-60(TB) leukemia, 1400 nM; in the assay with HS 578T breast, 3660 nM; with HCT-15 colon, 819 nM. In addition, the TGI amounted to 612 nM in the assay on HT29 colon, 3560 nM in the assay with SK-OV-3 ovarian, 1100 nM in the assay on MDA-MB-435 and 1810 nM in the assay with ACHN renal.
